# Measured values from US11091463B2, “Amide-substituted pyridinyltriazole derivatives and uses thereof” (BAYER PHARMA AKTIENGESELLSCHAFT, priority 2016, dated 2021).
# Legend:
# [1] = biological target: T1, human V1a receptor (Homo sapiens, UniProt P37288); assay: Cellular in vitro assay for vasopressin receptor activity, V1a receptor cell line (photoprotein luminescence); assay type: cell-based; settings: Table 1A, compounds of the invention
# T1 construct: expressed in transfected cells; host or cells: CHO K1 (ATCC), also stably transfected with a modified aequorin
# Experimental: (§1) B-1. Cellular In Vitro Assay for Determining Vasopressin Receptor Activity
# The identification of agonists and antagonists of the V1a and V2 vasopressin receptors from humans, rats and dogs as well as the quantification of the activity of the compounds of the invention is carried out using recombinant cell lines. These cell lines originally derive from a hamster's ovary epithelial cell (Chinese Hamster Ovary, CHO K1, ATCC: American Type Culture Collection, Manassas, Va. 20108, USA). The test cell lines constitutively express the human, rat or dog V1a or V2 receptors. In case of the Gαq-coupled V1a receptors, cells are also stably transfected with a modified form of the calcium-sensitive photoproteins aequorin (human and rat V1a) or obelin (dog V1a), which, after reconstitution with the cofactor coelenterazine, emit light when there are increases in free calcium concentrations [Rizzuto R, Simpson A W, Brini M, Pozzan T, Nature, 358, 325-327 (1992); Illarionov B A, Bondar V S, Illarionova V A, Vysotski E S, Gene, 153 (2), 273-274 (1995)]. The resulting vasopressin receptor cells react to stimulation of the recombinantly expressed V1a receptors by intracellular release of calcium ions, which can be quantified by the resulting photoprotein luminescence. The Gs-coupled V2 receptors are stably transfected into cell lines expressing the gene for firefly luciferase under control of a CRE-responsible promoter. Activation of V2 receptors induces the activation of the CRE-responsive promoter via cAMP increase, thereby inducing the expression of firefly luciferase. The light emitted by photoproteins of V1a cell lines as well as the light emitted by firefly luciferase of V2 cell lines corresponds to the activation or inhibition of the respective vasopressin receptor. The bioluminescence of the cell lines is detected using a suitable luminometer [Milligan G, Marshall F, Rees S, Trends in Pharmacological Sciences, 17, 235-237 (1996)].
# Vasopressin V1a Receptor Cell Lines:
# On the day before the assay, the cells are plated out in culture medium (DMEM/F12, 2% FCS, 2 mM glutamine, 10 mM HEPES, 5 μg/ml coelenterazine) in 384-well microtiter plates and kept in a cell incubator (96% humidity, 5% v/v CO2, 37° C.). On the day of the assay, test compounds in various concentrations are placed for 10 minutes in the wells of the microtiter plate before the agonist [Arg^8]-vasopressin at EC50 concentration is added. The resulting light signal is measured immediately in a luminometer.
# Table 1A below lists individual IC50 values for the compounds of the invention (including racemic mixtures as well as separated enantiomers) that were obtained from cell lines transfected with the human V1a or V2 receptor: […]
# [2] = biological target: T2, human V2 receptor (Homo sapiens, UniProt P30518); assay: Cellular in vitro assay for vasopressin receptor activity, V2 receptor cell line (CRE-luciferase); assay type: cell-based; settings: Table 1A; compounds of the invention; CHO cell line transfected with human V2 receptor, [Arg8]-vasopressin at EC50; read-out: IC50 hV2
# T2 construct: expressed in transfected cells; host or cells: CHO K1 (ATCC) line expressing firefly luciferase under a CRE-responsive promoter
# Experimental: as §1
# The identification of agonists and antagonists of the V1a and V2 vasopressin receptors from humans, rats and dogs as well as the quantification of the activity of the compounds of the invention is carried out using recombinant cell lines. These cell lines originally derive from a hamster's ovary epithelial cell (Chinese Hamster Ovary, CHO K1, ATCC: American Type Culture Collection, Manassas, Va. 20108, USA). The test cell lines constitutively express the human, rat or dog V1a or V2 receptors. […] The resulting vasopressin receptor cells react to stimulation of the recombinantly expressed V1a receptors by intracellular release of calcium ions, which can be quantified by the resulting photoprotein luminescence. […] The bioluminescence of the cell lines is detected using a suitable luminometer [Milligan G, Marshall F, Rees S, Trends in Pharmacological Sciences, 17, 235-237 (1996)]. […]
# On the day before the assay, the cells are plated out in culture medium (DMEM/F12, 2% FCS, 2 mM glutamine, 10 mM HEPES) in 384-well microtiter plates and kept in a cell incubator (96% humidity, 5% v/v CO2, 37° C.). […] Upon addition of the cell lysis reagent Triton™ and the substrate luciferin, luminescence of firefly luciferase is measured in a luminometer. […]
# T1 sequence (P37288 whole entry): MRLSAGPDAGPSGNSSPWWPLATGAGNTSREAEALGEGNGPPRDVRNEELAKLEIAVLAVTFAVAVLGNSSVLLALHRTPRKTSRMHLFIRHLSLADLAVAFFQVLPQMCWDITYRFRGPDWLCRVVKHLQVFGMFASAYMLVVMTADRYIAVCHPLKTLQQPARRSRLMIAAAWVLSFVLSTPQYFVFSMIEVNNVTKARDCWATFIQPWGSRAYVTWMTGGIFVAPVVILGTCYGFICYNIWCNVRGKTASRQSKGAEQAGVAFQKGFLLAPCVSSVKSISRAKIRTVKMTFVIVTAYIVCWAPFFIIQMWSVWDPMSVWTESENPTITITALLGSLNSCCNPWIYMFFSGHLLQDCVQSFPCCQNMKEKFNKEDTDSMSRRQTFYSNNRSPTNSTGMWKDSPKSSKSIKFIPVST
# T2 sequence (P30518 whole entry): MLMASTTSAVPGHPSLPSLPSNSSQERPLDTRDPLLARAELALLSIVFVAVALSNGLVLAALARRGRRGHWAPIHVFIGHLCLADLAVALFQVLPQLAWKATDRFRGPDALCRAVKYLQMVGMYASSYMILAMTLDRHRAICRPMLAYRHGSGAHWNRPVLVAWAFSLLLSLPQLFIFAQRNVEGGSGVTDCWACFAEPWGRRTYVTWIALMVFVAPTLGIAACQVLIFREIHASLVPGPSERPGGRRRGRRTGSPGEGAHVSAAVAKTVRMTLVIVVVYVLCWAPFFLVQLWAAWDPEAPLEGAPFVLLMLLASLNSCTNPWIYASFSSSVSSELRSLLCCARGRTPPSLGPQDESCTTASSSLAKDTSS
compound,measurement,setting,value
"NC(=O)c1nc(Cn2nc(-c3ccc(Cl)cc3)n(CC(=O)C(F)(F)F)c2=O)nn1-c1ncccc1C(F)(F)F [Example 17, 3-{[3-(4-Chlorophenyl)-5-oxo-4-(3,3,3-trifluoro-2-oxopropyl)-4,5-dihydro-1H-1,2,4-triazol-1-yl]methyl}-1-[3-(trifluoromethyl)pyridin-2-yl]-1H-1,2,4-triazole-5-carboxamide (ketone form) or 3-{[3-(4-Chlorophenyl)-5-oxo-4-(3,3,3-trifluoro-2,2-dihydroxypropyl)-4,5-dihydro-1H-1,2,4-triazol-1-yl]methyl}-1-[3-(trifluoromethyl)pyridin-2-yl]-1H-1,2,4-triazole-5-carboxamide (hydrate form)]",IC50,"[1]; CHO cell line transfected with human V1a receptor, [Arg8]-vasopressin at EC50, read-out: IC50 hV1a",5.3 nM
same,ratio IC50 hV2/hV1a,[1]; selectivity ratio,66.0
same,IC50,[2],350 nM
